Results taken from patent publication US9201014B2, “Development of photostable near-IR cyanine dyes for in vivo imaging” (National University of Singapore, priority 2010, dated 2015).

Tests used:
[1] = Primary screening of photostability of the CyNA library (time-course fluorescence, 8 h); format: physicochemical; set-up: F/Fo, fluorescent intensity at 8 hours vs 0 hours: unit: %; conditions: 10 μM in HEPES 100 mM pH 7.4, 2% DMSO
Summary of the method: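 CyNA dyes at 10 μM in 100 mM HEPES pH 7.4 with 2% DMSO irradiated by xenon lamp for 8 h. Fluorescence (ex/em 790-820 nm) read every 10 min; stability given as F8h/Fo.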

[2] = Absorbance and fluorescence maximum wavelengths and quantum yields of the CyNA library; format: physicochemical; conditions: for λabs, absorbance maximum wavelength / λem, fluorescence maximum wavelength: CyNA library; for φ, quantum yield: in DMSO, Cardiogreen as standard
Summary of the method: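 Absorption and emission maxima and quantum yields of the 80-member amine-derivatized CyNA library were measured on a plate spectrophotometer.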

SMILES	F/Fo, fluorescent intensity at 8 hours vs 0 hours [1]	max RFU, maximum relative fluorescence units [1]	λabs, absorbance maximum wavelength [2]	λem, fluorescence maximum wavelength [2]	φ, quantum yield [2]
CCCN1/C(=C/C=C2\CCCC(/C=C/C3=[N+](CCC)c4ccccc4C3(C)C)=C2N(Cc2cccc(Cl)c2)C(C)=O)C(C)(C)c2ccccc21 [CyNA-403]	45	261.6	805 nm	819 nm	0.05
CCCN1/C(=C/C=C2\CCCC(/C=C/C3=[N+](CCC)c4ccccc4C3(C)C)=C2N(CCc2cccc(F)c2)C(C)=O)C(C)(C)c2ccccc21 [CyNA-405]	83	138.5	806 nm	820 nm	0.06
CCCCCCCCCCN(C(C)=O)C1=C(/C=C/C2=[N+](CCC)c3ccccc3C2(C)C)CCC/C1=C\C=C1\N(CCC)c2ccccc2C1(C)C [CyNA-407]	–	22.5	805 nm	820 nm	0.08
CCCCCN(C(C)=O)C1=C(/C=C/C2=[N+](CCC)c3ccccc3C2(C)C)CCC/C1=C\C=C1\N(CCC)c2ccccc2C1(C)C [CyNA-419]	91	835.2	804 nm	820 nm	0.13
CCCN1/C(=C/C=C2\CCCC(/C=C/C3=[N+](CCC)c4ccccc4C3(C)C)=C2N(CCCN(C)C)C(C)=O)C(C)(C)c2ccccc21 [CyNA-427]	100	1247.4	805 nm	821 nm	0.14
CCCN1/C(=C/C=C2\CCCC(/C=C/C3=[N+](CCC)c4ccccc4C3(C)C)=C2N(CCC(C)C)C(C)=O)C(C)(C)c2ccccc21 [CyNA-442]	54	424.2	806 nm	822 nm	0.07
CCCN1/C(=C/C=C2\CCCC(/C=C/C3=[N+](CCC)c4ccccc4C3(C)C)=C2N(Cc2ccco2)C(C)=O)C(C)(C)c2ccccc21 [CyNA-446]	85	709.2	804 nm	821 nm	0.08
CCCN1/C(=C/C=C2\CCCC(/C=C/C3=[N+](CCC)c4ccccc4C3(C)C)=C2N(CCc2ccccc2F)C(C)=O)C(C)(C)c2ccccc21 [CyNA-477]	–	169.8	805 nm	819 nm	0.09
CCCN1/C(=C/C=C2\CCCC(/C=C/C3=[N+](CCC)c4ccccc4C3(C)C)=C2N(CCc2ccc(C)cc2)C(C)=O)C(C)(C)c2ccccc21.[I-] [CyNA-478]	64	121.6	805 nm	821 nm	0.09
CCCN1/C(=C/C=C2\CCCC(/C=C/C3=[N+](CCC)c4ccccc4C3(C)C)=C2N(CCc2ccccc2Cl)C(C)=O)C(C)(C)c2ccccc21 [CyNA-480]	51	154.8	803 nm	817 nm	0.06
CCCN1/C(=C/C=C2\CCCC(/C=C/C3=[N+](CCC)c4ccccc4C3(C)C)=C2N(CC(C)C)C(C)=O)C(C)(C)c2ccccc21 [CyNA-487]	30	45.3	806 nm	823 nm	0.04
CCCN1/C(=C/C=C2\CCCC(/C=C/C3=[N+](CCC)c4ccccc4C3(C)C)=C2N(Cc2ccc(Cl)cc2Cl)C(C)=O)C(C)(C)c2ccccc21 [CyNA-531]	100	187.5	804 nm	820 nm	0.08
CCCN1/C(=C/C=C2\CCCC(/C=C/C3=[N+](CCC)c4ccccc4C3(C)C)=C2N(Cc2cccc3ccccc23)C(C)=O)C(C)(C)c2ccccc21 [CyNA-542]	74	442.7	805 nm	821 nm	0.08
CCCN1/C(=C/C=C2\CCCC(/C=C/C3=[N+](CCC)c4ccccc4C3(C)C)=C2N(CC(c2ccccc2)c2ccccc2)C(C)=O)C(C)(C)c2ccccc21 [CyNA-548]	–	67.6	804 nm	820 nm	0.04
CCCN1/C(=C/C=C2\CCCC(/C=C/C3=[N+](CCC)c4ccccc4C3(C)C)=C2N(Cc2ccc(Cl)c(Cl)c2)C(C)=O)C(C)(C)c2ccccc21 [CyNA-565]	96	335.5	805 nm	821 nm	0.09
CCCCCCCCCCCN(C(C)=O)C1=C(/C=C/C2=[N+](CCC)c3ccccc3C2(C)C)CCC/C1=C\C=C1\N(CCC)c2ccccc2C1(C)C [CyNA-567]	100	279.2	805 nm	820 nm	0.14
CCCN1/C(=C/C=C2\CCCC(/C=C/C3=[N+](CCC)c4ccccc4C3(C)C)=C2N(CC(C)CC)C(C)=O)C(C)(C)c2ccccc21 (stereo not shown) [CyNA-574]	38	321.1	803 nm	818 nm	0.06
